Experimental data published in patent publication US20230085307A1, “PYRIDAZINONE COMPOUND AND HERBICIDE” (NISSAN CHEMICAL CORPORATION, priority 2019, published 2023).

Experiments:
wild oat [1] = test: Test Example 4: herbicidal effect by soil treatment (Table 19, symbol I); format: in vivo, wild oat (Avena fatua); conditions: amount of applied herbicide 320 g/ha
Outline: (§1)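 Herbicidal effect was rated 3 weeks after treatment, using the scoring criteria of an earlier test. The compound, formulated as an emulsion and diluted in water to a set herbicide amount, had been sprayed uniformly on soil over freshly sown seeds. Growth took place in a greenhouse at 25° C. to 30° C.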

wild oat [2] = test: Test Example 5: herbicidal effect by foliage application, plastic box (Table 20, symbol I); format: in vivo, wild oat (Avena fatua)
Outline: (§2)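 Foliar spray test: emulsion formulation diluted in water to a set application rate, sprayed onto 14-day-old plants raised in diluvial soil at 25° C to 30° C under glass. Both herbicidal effect and crop effect rated visually three weeks later.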

chickweed [3] = test: Test Example 4: herbicidal effect by soil treatment (Table 19, symbol P); format: in vivo, common chickweed (Stellaria media); conditions: amount of applied herbicide 320 g/ha
Outline: as §1

chickweed [4] = test: Test Example 5: herbicidal effect by foliage application, plastic box (Table 20, symbol P); format: in vivo, common chickweed (Stellaria media); conditions: amount of applied herbicide 320 g/ha; foliage application after 14-day growth; evaluated three weeks after application
Outline: as §2

Chinese sprangletop = test: Test Example 3: herbicidal effect by foliage application, Wagner pot (Table 18, symbol D); format: in vivo, chinese sprangletop (Leptochloa chinensis); conditions: 320 g/ha
Outline: (§3)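 Plants were sown in alluvial soil held under 0.1–0.5 cm standing water and grown 14 days in a greenhouse at 25–30 °C. An emulsifiable formulation, water-diluted to the set dose, was then sprayed onto the foliage, and effects were scored three weeks later using previously defined criteria.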

false cleavers = test: Test Example 5: herbicidal effect by foliage application, plastic box (Table 20, symbol Q); format: in vivo, false cleavers (Galium spurium)
Outline: as §2

barnyard grass [5] = test: Test Example 5: herbicidal effect by foliage application, plastic box (Table 20, symbol H); format: in vivo, barnyard grass (Echinochloa crus-galli)
Outline: as §2

velvetleaf [6] = test: Test Example 5: herbicidal effect by foliage application, plastic box (Table 20, symbol M); format: in vivo, velvetleaf (Abutilon theophrasti)
Outline: as §2

Italian ryegrass [7] = test: Test Example 5: herbicidal effect by foliage application, plastic box (Table 20, symbol K); format: in vivo, Italian ryegrass (Lolium multiflorum)
Outline: as §2

redroot pigweed [8] = test: Test Example 4: herbicidal effect by soil treatment (Table 19, symbol N); format: in vivo, redroot pigweed (Amaranthus retroflexus); conditions: amount of applied herbicide 320 g/ha
Outline: as §1

green foxtail [9] = test: Test Example 5: herbicidal effect by foliage application, plastic box (Table 20, symbol G); format: in vivo, green foxtail (Setaria viridis)
Outline: as §2

persian speedwell [10] = test: Test Example 4: herbicidal effect by soil treatment (Table 19, symbol R); format: in vivo, Persian speedwell (Veronica persica); conditions: amount of applied herbicide 320 g/ha
Outline: as §1

windgrass [11] = test: Test Example 5: herbicidal effect by foliage application, plastic box (Table 20, symbol L); format: in vivo, windgrass (Apera spica-venti)
Outline: as §2

rice flat sedge = test: Test Example 3: herbicidal effect by foliage application, Wagner pot (Table 18, symbol E); format: in vivo, rice flat sedge (Cyperus iria); conditions: 320 g/ha
Outline: as §3

southern crabgrass [12] = test: Test Example 5: herbicidal effect by foliage application, plastic box (Table 20, symbol F); format: in vivo, southern crabgrass (Digitaria ciliaris)
Outline: as §2

lambsquarters [13] = test: Test Example 5: herbicidal effect by foliage application, plastic box (Table 20, symbol O); format: in vivo, lambsquarters (Chenopodium album); conditions: amount of applied herbicide 320 g/ha; foliage application after 14-day growth; evaluated three weeks after application
Outline: as §2

southern crabgrass [14] = test: Test Example 4: herbicidal effect by soil treatment (Table 19, symbol F); format: in vivo, southern crabgrass (Digitaria ciliaris); conditions: amount of applied herbicide 320 g/ha
Outline: as §1

velvetleaf [15] = test: Test Example 4: herbicidal effect by soil treatment (Table 19, symbol M); format: in vivo, velvetleaf (Abutilon theophrasti); conditions: amount of applied herbicide 320 g/ha
Outline: as §1

barnyard grass [16] = test: Test Example 3: herbicidal effect by foliage application, Wagner pot (Table 18, symbol H); format: in vivo, barnyard grass (Echinochloa crus-galli); conditions: 320 g/ha
Outline: as §3

green foxtail [17] = test: Test Example 4: herbicidal effect by soil treatment (Table 19, symbol G); format: in vivo, green foxtail (Setaria viridis); conditions: amount of applied herbicide 320 g/ha
Outline: as §1

Italian ryegrass [18] = test: Test Example 4: herbicidal effect by soil treatment (Table 19, symbol K); format: in vivo, Italian ryegrass (Lolium multiflorum); conditions: amount of applied herbicide 320 g/ha
Outline: as §1

windgrass [19] = test: Test Example 4: herbicidal effect by soil treatment (Table 19, symbol L); format: in vivo, windgrass (Apera spica-venti); conditions: amount of applied herbicide 320 g/ha
Outline: as §1

persian speedwell [20] = test: Test Example 5: herbicidal effect by foliage application, plastic box (Table 20, symbol R); format: in vivo, Persian speedwell (Veronica persica)
Outline: as §2

redroot pigweed [21] = test: Test Example 5: herbicidal effect by foliage application, plastic box (Table 20, symbol N); format: in vivo, redroot pigweed (Amaranthus retroflexus); conditions: amount of applied herbicide 320 g/ha; foliage application after 14-day growth; evaluated three weeks after application
Outline: as §2

blackgrass [22] = test: Test Example 4: herbicidal effect by soil treatment (Table 19, symbol J); format: in vivo, blackgrass (Alopecurus myosuroides); conditions: amount of applied herbicide 320 g/ha
Outline: as §1

barnyard grass [23] = test: Test Example 4: herbicidal effect by soil treatment (Table 19, symbol H); format: in vivo, barnyard grass (Echinochloa crus-galli); conditions: amount of applied herbicide 320 g/ha
Outline: as §1

blackgrass [24] = test: Test Example 5: herbicidal effect by foliage application, plastic box (Table 20, symbol J); format: in vivo, blackgrass (Alopecurus myosuroides)
Outline: as §2

lambsquarters [25] = test: Test Example 4: herbicidal effect by soil treatment (Table 19, symbol O); format: in vivo, lambsquarters (Chenopodium album); conditions: amount of applied herbicide 320 g/ha
Outline: as §1

Japanese bulrush = test: Test Example 1: herbicidal activity, application before weed generation under submerged conditions (Table 16, symbol B); format: in vivo, Japanese bulrush (Schoenoplectus juncoides); conditions: amount of applied herbicide 320 g/ha
Outline: (§4)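 Submerged Wagner pots (alluvial soil, 4 cm water) sown with weed seeds and planted with 2.5-leaf rice seedlings; emulsifiable concentrate diluted in water applied to water surface on sowing day. Held in greenhouse at 25-30 °C; injury scored 0-5 by herbicidal rate after three weeks.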

late watergrass = test: Test Example 1: herbicidal activity, application before weed generation under submerged conditions (Table 16, symbol A); format: in vivo, late watergrass (Echinochloa oryzicola); conditions: amount of applied herbicide 320 g/ha
Outline: as §4

oval-leafed pondweed = test: Test Example 1: herbicidal activity, application before weed generation under submerged conditions (Table 16, symbol C); format: in vivo, oval-leafed pondweed (Monochoria vaginalis); conditions: amount of applied herbicide 320 g/ha
Outline: as §4

[26] = amount of applied herbicide 320 g/ha, foliage application after 14-day growth, evaluated three weeks after application
[27] = foliage application, 320 g/ha, three weeks after application

Structure (SMILES): COc1ccc(-c2sc3cc(F)c(F)cc3c2-c2c(O)c(C)nn(C)c2=O)cc1 [5-014]
- I: wild oat, herbicidal effect grade (wild oat [1]): 0 (Herbicidal rate of 5% or less (almost no effect))
- Herbicidal effect by foliage application, I: wild oat (wild oat [2]; [26]): 0 (Herbicidal rate of 5% or less (almost no effect))
- P: chickweed, herbicidal effect grade (chickweed [3]): 3 (Herbicidal rate of 40% or more and less than 70%)
- Herbicidal effect by foliage application, P: chickweed (chickweed [4]): 5 (Herbicidal rate of 90% or more (almost completely withered))
- herbicidal effect on Chinese sprangletop (D) (Chinese sprangletop): 0 (Herbicidal rate of 5% or less (almost no effect))
- Herbicidal effect by foliage application, Q: false cleavers (false cleavers; [26]): 4 (Herbicidal rate of 70% or more and less than 90%)
- Herbicidal effect by foliage application, H: barnyard grass (barnyard grass [5]; [26]): 2 (Herbicidal rate of 20% or more and less than 40%)
- Herbicidal effect by foliage application, M: velvetleaf (velvetleaf [6]; [26]): 5 (Herbicidal rate of 90% or more (almost completely withered))
- Herbicidal effect by foliage application, K: Italian ryegrass (Italian ryegrass [7]; [26]): 4 (Herbicidal rate of 70% or more and less than 90%)
- N: redroot pigweed, herbicidal effect grade (redroot pigweed [8]): 5 (Herbicidal rate of 90% or more (almost completely withered))
- Herbicidal effect by foliage application, G: green foxtail (green foxtail [9]; [26]): 2 (Herbicidal rate of 20% or more and less than 40%)
- R: persian speedwell, herbicidal effect grade (persian speedwell [10]): 5 (Herbicidal rate of 90% or more (almost completely withered))
- Herbicidal effect by foliage application, L: windgrass (windgrass [11]; [26]): 0 (Herbicidal rate of 5% or less (almost no effect))
- herbicidal effect on rice flat sedge (E) (rice flat sedge): 5 (Herbicidal rate of 90% or more (almost completely withered))
- Herbicidal effect by foliage application, F: southern crabgrass (southern crabgrass [12]; [26]): 3 (Herbicidal rate of 40% or more and less than 70%)
- Herbicidal effect by foliage application, O: lambsquarters (lambsquarters [13]): 5 (Herbicidal rate of 90% or more (almost completely withered))
- F: southern crabgrass, herbicidal effect grade (southern crabgrass [14]): 0 (Herbicidal rate of 5% or less (almost no effect))
- M: velvetleaf, herbicidal effect grade (velvetleaf [15]): 4 (Herbicidal rate of 70% or more and less than 90%)
- herbicidal effect on barnyard grass (H) (barnyard grass [16]): 4 (Herbicidal rate of 70% or more and less than 90%)
- G: green foxtail, herbicidal effect grade (green foxtail [17]): 1 (Herbicidal rate of 5% or more and less than 20%)
- K: Italian ryegrass, herbicidal effect grade (Italian ryegrass [18]): 0 (Herbicidal rate of 5% or less (almost no effect))
- L: windgrass, herbicidal effect grade (windgrass [19]): 0 (Herbicidal rate of 5% or less (almost no effect))
- Herbicidal effect by foliage application, R: persian speedwell (persian speedwell [20]; [26]): 5 (Herbicidal rate of 90% or more (almost completely withered))
- Herbicidal effect by foliage application, N: redroot pigweed (redroot pigweed [21]): 5 (Herbicidal rate of 90% or more (almost completely withered))
- J: blackgrass, herbicidal effect grade (blackgrass [22]): 0 (Herbicidal rate of 5% or less (almost no effect))
- H: barnyard grass, herbicidal effect grade (barnyard grass [23]): 2 (Herbicidal rate of 20% or more and less than 40%)
- Herbicidal effect by foliage application, J: blackgrass (blackgrass [24]; [26]): 0 (Herbicidal rate of 5% or less (almost no effect))
- O: lambsquarters, herbicidal effect grade (lambsquarters [25]): 5 (Herbicidal rate of 90% or more (almost completely withered))

Structure (SMILES): COc1cc2sc(-c3ccccc3)c(-c3c(O)c(C)nn(C)c3=O)c2cc1OC [5-055]
- herbicidal effect on wild oat (I) (wild oat [2]; [27]): 0 (Herbicidal rate of 5% or less (almost no effect))
- Herbicidal effect, B: Japanese bulrush (Japanese bulrush): 0 (Herbicidal rate of 5% or less (almost no effect))
- herbicidal effect on Chinese sprangletop (D) (Chinese sprangletop): 0 (Herbicidal rate of 5% or less (almost no effect))
- herbicidal effect on false cleavers (Q) (false cleavers; [27]): 0 (Herbicidal rate of 5% or less (almost no effect))
- Herbicidal effect, A: late watergrass (late watergrass): 2 (Herbicidal rate of 20% or more and less than 40%)
- herbicidal effect on barnyard grass (H) (barnyard grass [5]; [27]): 0 (Herbicidal rate of 5% or less (almost no effect))
- herbicidal effect on velvetleaf (M) (velvetleaf [6]; [27]): 2 (Herbicidal rate of 20% or more and less than 40%)
- herbicidal effect on Italian ryegrass (K) (Italian ryegrass [7]; [27]): 4 (Herbicidal rate of 70% or more and less than 90%)
- herbicidal effect on green foxtail (G) (green foxtail [9]; [27]): 0 (Herbicidal rate of 5% or less (almost no effect))
- herbicidal effect on windgrass (L) (windgrass [11]; [27]): 0 (Herbicidal rate of 5% or less (almost no effect))
- herbicidal effect on rice flat sedge (E) (rice flat sedge): 3 (Herbicidal rate of 40% or more and less than 70%)
- herbicidal effect on southern crabgrass (F) (southern crabgrass [12]; [27]): 0 (Herbicidal rate of 5% or less (almost no effect))
- Herbicidal effect, C: oval-leafed pondweed (oval-leafed pondweed): 0 (Herbicidal rate of 5% or less (almost no effect))
- herbicidal effect on barnyard grass (H) (barnyard grass [16]): 1 (Herbicidal rate of 5% or more and less than 20%)
- herbicidal effect on persian speedwell (R) (persian speedwell [20]; [27]): 4 (Herbicidal rate of 70% or more and less than 90%)
- herbicidal effect on blackgrass (J) (blackgrass [24]; [27]): 0 (Herbicidal rate of 5% or less (almost no effect))
